From publication PMC11675717, “Evolutionary Adaptations in Biliverdin Reductase B: Insights into Coenzyme Dynamics and Catalytic Efficiency” (International Journal of Molecular Sciences, 2024)
Substitutions are numbered along the chain they refer to. Where two headings read alike, the source gives them in different places. Each block holds one compound with its values, some of them ahead of it.

How the values were obtained:
[1] = biological target: T1, human BLVRB (Homo sapiens, UniProt P30043); assay: NMR titration ([…]-HSQC); conditions: bis-tris pH 6.5; weak binding
T1 construct: pET21
T1 sequence (P30043 2-206): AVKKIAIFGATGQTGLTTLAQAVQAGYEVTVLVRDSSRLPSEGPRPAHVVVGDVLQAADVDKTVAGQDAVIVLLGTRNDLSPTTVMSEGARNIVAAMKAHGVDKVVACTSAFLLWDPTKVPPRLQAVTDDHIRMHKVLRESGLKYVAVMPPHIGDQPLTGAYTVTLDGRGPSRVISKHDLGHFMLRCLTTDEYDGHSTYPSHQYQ

[2] = biological target: T2, Aedes aegypti BLVRB (Aedes aegypti, UniProt Q16FC8); assay: NMR spectra ([…]-HSQC) apo versus NADP+; type: binding; conditions: complex unstable over hours at room temperature
T2 construct: gene 5565330
T2 sequence (Q16FC8 1-205): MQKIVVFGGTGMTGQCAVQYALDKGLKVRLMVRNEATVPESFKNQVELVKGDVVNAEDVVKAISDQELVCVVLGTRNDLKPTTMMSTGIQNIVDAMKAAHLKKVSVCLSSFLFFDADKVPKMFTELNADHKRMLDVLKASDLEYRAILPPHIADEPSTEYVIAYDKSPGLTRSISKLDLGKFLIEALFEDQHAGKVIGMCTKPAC

[3] = biological target: T3, human BLVRB (Homo sapiens, UniProt P30043, T164S); assay: isothermal titration calorimetry; type: binding
T3 construct: pET21
T3 sequence (P30043 2-206 T164S): T1 sequence (P30043 2-206) with T163S
Description: (§1) isothermal titration calorimetry on human BLVRB

[4] = biological target: T1, human BLVRB; assay: isothermal titration calorimetry; type: binding
Description: as §1

[5] = biological target: T4, hyrax BLVRB; assay: NMR titration ([…]-HSQC); design: species or system Procavia capensis; conditions: holo form, bis-tris pH 6.5, 20 °C, 900 MHz
T4 construct: pET21

[6] = biological target: T1, human BLVRB; assay: NMR titration ([…]-HSQC); type: binding

SMILES: C=CC1=C(C)/C(=C/c2[nH]c(Cc3[nH]c(/C=C4\NC(=O)C(C)=C4C=C)c(C)c3CCC(=O)O)c(CCC(=O)O)c2C)NC1=O [BR-α]
binding affinity [1]: a titration of human BLVRB with BR-α revealed an expected weak binding affinity

SMILES: C=CC1=C(C)/C(=C/c2[nH]c(Cc3[nH]c(/C=C4\NC(=O)C(C)=C4CCC(=O)O)c(CCC(=O)O)c3C)c(C)c2C=C)NC1=O (mixture of isomers) [bilirubin-β]
Kd ([5]; NADP+ 1 mM, read-out: binding affinity): 19.5 ± 7.4 µM | Kd ([6]; read-out: binding affinity): 26.8 ± 9.1 µM

Further lines, with some results ahead:

Kd ([3]; read-out: Kd (nM) with NADP^+): 130 ± 10 nM | Kd ([4]; read-out: Kd (nM) with NADP^+): 190 ± 5 nM
SMILES: NC(=O)c1ccc[n+]([C@@H]2O[C@H](COP(=O)(O)OP(=O)(O)OC[C@H]3O[C@@H](n4cnc5c(N)ncnc54)[C@H](OP(=O)(O)O)[C@@H]3O)[C@@H](O)[C@H]2O)c1 [NADP^+]
NMR spectra (15N-HSQC) apo versus NADP+ [2]: gave rise to good dispersion upon NADP^+ binding

Kd ([5]; read-out: Kd): 496 ± 22.6 µM | Kd ([6]; read-out: Kd): 283 ± 13.5 µM
SMILES: Cc1cc2nc3c(=O)[nH]c(=O)nc-3n(C[C@H](O)[C@H](O)[C@H](O)COP(=O)(O)OP(=O)(O)OC[C@H]3O[C@@H](n4cnc5c(N)ncnc54)[C@H](O)[C@@H]3O)c2cc1C [FAD]

Kd ([3]; read-out: Kd (nM) with NADPH): 110 ± 10 nM | Kd ([4]; read-out: Kd (nM) with NADPH): 130 ± 10 nM
SMILES: NC(=O)C1=CN([C@@H]2O[C@H](COP(=O)(O)OP(=O)(O)OC[C@H]3O[C@@H](n4cnc5c(N)ncnc54)[C@H](OP(=O)(O)O)[C@@H]3O)[C@@H](O)[C@H]2O)C=CC1 [NADPH]
